In ChEMBL document CHEMBL3992523, “Potent Inhibition of Nitric Oxide-Releasing Bifendate Derivatives against Drug-Resistant K562/A02 Cells in Vitro and in Vivo” (J Med Chem, 2017):
The source made the active and inactive calls. No cut-off for these calls is given here.

How the values were obtained:
Mus musculus [1] = assay: Induction of nitration of mitochondrial cytochrome c in tumor of iv dosed BALB/c nude mouse xenografted with P-gp overexpressing/drug resistant human K562/A02 cells administered every other day for 21 days by Western blot analysis; type: functional, organism-based
K562/A02 [2] = assay: Anti-proliferative activity against P-gp overexpressing/drug resistant human K562/A02 cells measured after 72 hrs by MTS assay; type: functional, cell-based; settings: K562/A02, 72 h
Homo sapiens [3] = organism: Homo sapiens; assay: Inhibition of ERK phosphorylation in human K562/A02 cells at 2 uM in presence of hemoglobin measured after 24 hrs by Western blot analysis; type: cell-based
Homo sapiens [4] = organism: Homo sapiens; assay: Effect on P-gp ATPase activity in human K562/A02 cell membranes assessed as remaining ATP level by measuring relative light units at 40 uM in presence of MgATP measured after 40 mins by luminescence based P-gp-Glo assay (reference value: 216508 +/- 7426 RLU)
Homo sapiens [5] = organism: Homo sapiens; assay: Inhibition of ERK phosphorylation in P-gp overexpressing/drug resistant human K562/A02 cells at 8 uM after 24 hrs by Western blot analysis
K562 [6] = assay: Anti-proliferative activity against human K562 cells measured after 72 hrs by MTS assay; type: functional, cell-based; settings: K562, 72 h
Mus musculus [7] = assay: Toxicity in BALB/c nude mouse assessed as abnormality in eating at 1000 mg/kg, iv measured up to 14 days; type: organism-based; settings: in vivo, 336 h
Mus musculus [8] = assay: Toxicity in P-gp overexpressing/drug resistant human K562/A02 cells xenografted BALB/c nude mouse assessed as change in body weight at 120 mg/kg, iv administered every other day for 21 days measured on day 2,4,6,8,10,12,14,16,18,20,22 of dosing; type: organism-based; settings: in vivo, 504 h
Homo sapiens [9] = organism: Homo sapiens; assay: Inhibition of NF-kappaB phosphorylation in human K562/A02 cells at 1 uM measured after 48 hrs by Western blot analysis; type: cell-based
[10] = target: RAC-alpha serine/threonine-protein kinase (Homo sapiens) (UniProt P31749); assay: Inhibition of AKT phosphorylation in human K562/A02 cells at 2 uM in presence of hemoglobin measured after 24 hrs by Western blot analysis; type: cell-based
[11] = Permeability in human Caco2 cells assessed as concentration ratio of basolateral to apical side at 100 uM measured at 10 mins post dose by HPLC analysis; type: ADME, cell-based; settings: caco-2, 10 min
K562/A02 [12] = assay: Induction of nitration of mitochondrial cytochrome c in P-gp overexpressing/drug resistant human K562/A02 cells at 10 uM in presence of hemoglobin measured after 24 hrs by Western blot analysis; type: functional, cell-based
Homo sapiens [13] = organism: Homo sapiens; assay: Inhibition of ERK phosphorylation in human K562/A02 cells at 1 uM measured after 48 hrs by Western blot analysis; type: cell-based
K562/A02 [14] = assay: Antitumor activity against P-gp overexpressing/drug resistant human K562/A02 cells xenografted in BALB/c nude mouse assessed as reduction in tumor volume at 120 mg/kg, iv administered every other day for 21 days measured every other day during dosing; type: functional, organism-based
K562/A02 [15] = assay: Effect on P-gp expression in P-gp overexpressing/drug resistant human K562/A02 cells up to 8 uM by RT-PCR method; type: functional, cell-based
[16] = Permeability in human Caco2 cells assessed as concentration ratio of basolateral to apical side at 100 uM measured at 5 mins post dose by HPLC analysis; type: ADME, cell-based; settings: caco-2, 5 min
K562/A02 [17] = assay: Antitumor activity against P-gp overexpressing/drug resistant human K562/A02 cells xenografted in BALB/c nude mouse assessed as tumor growth inhibition at 120 mg/kg, iv administered every other day for 21 days measured post last dose relative to control; type: functional; settings: 504 h, read-out: TGI
Homo sapiens [18] = organism: Homo sapiens; assay: Inhibition of P-gp in human K562/A02 cells assessed as increase in intracellular rhodamine123 accumulation at 0.33 to 10 uM measured after 1 hr by flow cytometry; type: cell-based
K562/A02 [19] = assay: Induction of nitration of mitochondrial cytochrome c in P-gp overexpressing/drug resistant human K562/A02 cells at 10 uM measured after 24 hrs by Western blot analysis; type: functional, cell-based
Homo sapiens [20] = organism: Homo sapiens; assay: Inhibition of NF-kappaB phosphorylation in P-gp overexpressing/drug resistant human K562/A02 cells at 8 uM after 24 hrs by Western blot analysis
[21] = target: RAC-alpha serine/threonine-protein kinase (Homo sapiens) (UniProt P31749); assay: Inhibition of AKT phosphorylation in human K562/A02 cells at 1 uM measured after 48 hrs by Western blot analysis; type: cell-based
[22] = Drug metabolism in P-gp overexpressing/drug resistant human K562/A02 cells assessed as nitric oxide production at 100 uM in presence of hemoglobin measured over 30 to 300 mins by Griess assay; type: ADME, cell-based; settings: k562/a02, 100 µM
K562/A02 [23] = assay: Effect on P-gp expression in P-gp overexpressing/drug resistant human K562/A02 cells up to 8 uM by Western blot analysis; type: functional, cell-based
Homo sapiens [24] = organism: Homo sapiens; assay: Induction of nitration of P-gp in P-gp overexpressing/drug resistant human K562/A02 cells at 10 uM measured after 24 hrs by Western blot analysis
K562/A02 [25] = assay: Down regulation of HIF-alpha expression in P-gp overexpressing/drug resistant human K562/A02 cells at 8 uM after 24 hrs by Western blot analysis; type: functional, cell-based
Mus musculus [26] = assay: Toxicity in BALB/c nude mouse assessed as abnormality in drinking at 1000 mg/kg, iv measured up to 14 days; type: organism-based; settings: in vivo, 336 h
K562/A02 [27] = assay: Anti-proliferative activity against P-gp overexpressing/drug resistant human K562/A02 cells assessed as decrease in cell survival at 1 uM in presence of hemoglobin measured after 24 hrs by MTS assay; type: functional, cell-based
K562/A02 [28] = assay: Down regulation of HIF-alpha expression in P-gp overexpressing/drug resistant human K562/A02 cells at 1 uM measured after 48 hrs by Western blot analysis; type: functional, cell-based
Homo sapiens [29] = organism: Homo sapiens; assay: Inhibition of NF-kappaB phosphorylation in human K562/A02 cells at 2 uM in presence of hemoglobin measured after 24 hrs by Western blot analysis; type: cell-based
Homo sapiens [30] = organism: Homo sapiens; assay: Induction of nitration of P-gp in P-gp overexpressing/drug resistant human K562/A02 cells at 10 uM in presence of hemoglobin measured after 24 hrs by Western blot analysis
K562/A02 [31] = assay: Antitumor activity against P-gp overexpressing/drug resistant human K562/A02 cells xenografted in BALB/c nude mouse assessed as reduction in tumor weight at 120 mg/kg, iv administered every other day for 21 days measured post last dose; type: functional, organism-based
[32] = Drug metabolism in P-gp overexpressing/drug resistant human K562/A02 cells assessed as nitric oxide production at 20 uM up to 6 hrs by Griess assay; type: ADME, cell-based; settings: k562/a02, 6 h
[33] = Drug metabolism in P-gp overexpressing/drug resistant human K562/A02 cells assessed as nitric oxide production at 20 uM by DAF-FMDA staining based fluorescent microscopic analysis; type: ADME, cell-based; settings: k562/a02, 20 µM, TDE = time-dependent effect
[34] = Drug metabolism in P-gp overexpressing/drug resistant human K562/A02 cells assessed as nitric oxide production at 100 uM measured at 240 mins by Griess assay; type: ADME, cell-based; settings: k562/a02, 4 h
Mus musculus [35] = assay: Toxicity in BALB/c nude mouse assessed as change in body weight at 1000 mg/kg, iv measured up to 14 days; type: organism-based; settings: in vivo, 336 h
[36] = target: RAC-alpha serine/threonine-protein kinase (Homo sapiens) (UniProt P31749); assay: Inhibition of AKT phosphorylation in P-gp overexpressing/drug resistant human K562/A02 cells at 8 uM after 24 hrs by Western blot analysis
K562 [37] = assay: Effect on rhodamine123 accumulation in human K562 cells at 0.33 to 10 uM measured after 1 hr by flow cytometry; type: functional, cell-based
[38] = Resistant factor, ratio of IC50 for P-gp overexpressing/drug resistant human K562/A02 cells to IC50 for human K562 cells; type: functional
Mus musculus [39] = assay: Toxicity in BALB/c nude mouse assessed as effect on survival at 1000 mg/kg, iv measured up to 14 days; type: organism-based; settings: in vivo, 336 h
K562/A02 [40] = assay: Down regulation of HIF-alpha expression in human K562/A02 cells at 2 uM in presence of hemoglobin measured after 24 hrs by Western blot analysis; type: functional, cell-based

Chain of RAC-alpha serine/threonine-protein kinase (Homo sapiens) (P31749 whole entry): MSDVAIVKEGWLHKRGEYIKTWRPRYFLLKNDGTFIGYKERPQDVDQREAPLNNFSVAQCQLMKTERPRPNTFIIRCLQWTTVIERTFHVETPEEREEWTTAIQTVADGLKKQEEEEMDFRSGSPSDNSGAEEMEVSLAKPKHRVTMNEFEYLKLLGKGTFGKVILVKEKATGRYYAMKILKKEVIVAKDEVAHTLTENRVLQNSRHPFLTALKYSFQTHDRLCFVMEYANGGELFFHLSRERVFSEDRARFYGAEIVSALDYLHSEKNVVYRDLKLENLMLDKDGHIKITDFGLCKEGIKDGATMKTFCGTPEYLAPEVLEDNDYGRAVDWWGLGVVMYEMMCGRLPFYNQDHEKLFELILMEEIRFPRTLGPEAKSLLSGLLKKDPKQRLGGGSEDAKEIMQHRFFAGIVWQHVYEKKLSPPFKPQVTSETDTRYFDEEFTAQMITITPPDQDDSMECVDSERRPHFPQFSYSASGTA

With `COC(=O)c1cc(OC)c2c(c1-c1c(C(=O)OC3CCN(CC(=O)OCCCCOc4no[n+]([O-])c4S(=O)(=O)c4ccccc4)CC3)cc(OC)c3c1OCO3)OCO2` the Activity (Mus musculus [1]) was “Dose-dependent effect”, the IC50 (K562/A02 [2]) was 0.55 µM and the inhibition (Homo sapiens [3]) was “inactive”. For the same molecule, the Activity (Homo sapiens [4]) was 241000 RLU, the inhibition (Homo sapiens [5]) was “Active” and the IC50 (K562 [6]) was 0.69 µM. The Activity (Mus musculus [7]) was “Non-Toxic”, the Activity (Mus musculus [8]) was “Non-Toxic” and the inhibition (Homo sapiens [9]) was “Active”. For the same molecule, the inhibition [10] was “inactive”, the Ratio [11] was 0.53 and the Activity (K562/A02 [12]) was “inactive”. For the same molecule, the inhibition (Homo sapiens [13]) was “Active”, the Activity (K562/A02 [14]) was “Active” and the Activity (K562/A02 [15]) was “inactive”. For the same molecule, the Ratio [16] was 0.14, the inhibition in vivo at 120 mg/kg (K562/A02 [17]) was 51.4% and the inhibition (Homo sapiens [18]) was “Active”. The Activity (K562/A02 [19]) was “Active”, the inhibition (Homo sapiens [20]) was “Active” and the inhibition [21] was “Active”. For the same molecule, the Drug metabolism [22] was “Metabolite_Notdetected”, the Activity (K562/A02 [23]) was “inactive” and the Activity (Homo sapiens [24]) was “Active”. For the same molecule, the Activity (K562/A02 [25]) was “Active”, the Activity (Mus musculus [26]) was “Non-Toxic” and the Activity (K562/A02 [27]) was “inactive”. For the same molecule, the Activity (K562/A02 [28]) was “Active”, the inhibition (Homo sapiens [29]) was “inactive” and the Activity (Homo sapiens [30]) was “inactive”. For the same molecule, the Activity (K562/A02 [31]) was “Active”, the Drug metabolism [32] was “Metabolite_Detected” and the Drug metabolism [33] was “Tde”. For the same molecule, the Drug metabolism [34] was “Metabolite_Detected”, the Activity (Mus musculus [35]) was “Non-Toxic” and the inhibition [36] was “Active”. For the same molecule, the Activity (K562 [37]) was “inactive”, the “Ratio IC50” value [38] was 0.8 and the Activity (Mus musculus [39]) was “Non-Toxic”. The Activity (K562/A02 [40]) was “inactive”.
